Literature values, collected in patent publication US20080113973A1, “Compositions and methods involving the combination of a thromboxane A2 receptor antagonist and an inhibitor of cyclooxygenase-2” (B.M.R.A. Corporation B.V., priority 2002, published 2008).

CS(=O)(=O)c1ccc(C2=C(c3ccccc3)C(=O)OC2)cc1 [Rofecoxib]
Time of peak plasma concentrations (after oral administration): 2 to 3 h | half life (in vivo): about 17 hours
